# Experimental data published in patent USRE31731E, “Herbicidal 4-trifluoromethyl-4-nitrodiphenyl ethers” (priority 1978, dated 1984).
# What was measured:
# Assay type in all cases: in vivo
# rice = assay: Crop tolerance, rice; settings: postemergence or on transplanted rice; 50% or less kill of crop at rates giving more than 50% kill of weeds
# Procedure: (§1) The following test procedure is employed. Seeds of selected crops and weeds are planted in soil in flats. For preemergence tests, the flats are treated with the test compound immediately after the planting. For postemergence tests, the seeds are allowed to germinate, and after 2 weeks the flats are treated with the test compound. The compound to be evaluated is dissolved in acetone, diluted with water, and sprayed over the flats using a carrier volume equivalent to 50 gallons per acre at the rate of application (pounds per acre, lb/A.) specified in the tables. About 2 weeks after the application of the test compound, the state of growth of the plants is observed and the phytotoxic effect of the compound is evaluated. Table II gives the average percent control achieved by the test compounds in terms of the percent of the plants which are killed by the compounds.
# (§2) Following the general test procedure of Example 73, diphenyl ethers are evaluated for significant tolerance (as shown by 50% or less kill of the test crop at levels of application which give more than 50% kill of many or all of the weeds of Example 73) towards some or all of the following common agronomic crops (not all compounds tested against all crops): alfalfa, snapbeans, corn, cotton, cucumbers, peanuts, rape, rice, safflower, soybeans, tomatoes, and wheat.
# Monocots [1] = assay: Herbicidal activity, preemergence, monocot weeds (Table II); settings: pre-emergence, 336 h, about 2 weeks, read-out: % control (percent of plants killed); for pest or weed control at 2241.7 g/ha: 2 lb./A.; for pest or weed control at 4483.4 g/ha: 4 lb./A.
# Procedure: (§3) Using the procedure described below, diphenyl ethers were evaluated for control of the following weeds: […]
# (§4) barnyardgrass (Echinochloa crusgalli) crabgrass (Digitaria spp.) nutsedge (Cyperus esculentus)
# (§5) At 2 and 4 pounds per acre:
# (§6) **Bermudagrass (Cynodon dactylon)
# (§7) *downy brome (Bromus tectorum) foxtail (Setaria faberii)
# (§8) Johnsongrass (Sorghum halepense) […]
# (§9) quackgrass (Agropyron repens)
# (§10) *ryegrass (Lolium perenne)
# (§11) *yellow millet (Panicum miliaceum)
# as §1
# Dicots [2] = assay: Herbicidal activity, postemergence, dicot weeds (Table II); settings: post-emergence, 336 h, about 2 weeks, read-out: % control (percent of plants killed); for pest or weed control at 2241.7 g/ha: 2 lb./A.; for pest or weed control at 4483.4 g/ha: 4 lb./A.
# Procedure: as §3
# (§12) bindweed (Convolvulus arvensis) curly dock (Remex crispus) velvetleaf (Abutilon theophrasti) wild mustard (Brassica haber)
# (§13) At 2 and 4 pounds per acre: […]
# (§14) cocklebur (Xanthium pensylvanicum)
# (§15) **coffeeweed (Sesbania macrocarpa)
# (§16) *curly dock (Rumex crispus)
# (§17) *lambsquarters (Chenopodium album) morningglory (Ipomoea purpurea)
# (§18) *pigweed (Amaranthus retroflexus)
# (§19) **ragweed (Ambrosia artemisiifolia)
# (§20) *smartweed (Polygonum pensylvanicum)
# (§21) **tomato (Lycopersicon esculentum)
# (§22) *wild carrot (Daucus carota)
# (§23) *wild mustard (Brassica haber)
# as §1
# Dicots [3] = assay: Herbicidal activity, preemergence, dicot weeds (Table II); settings: pre-emergence, 336 h, about 2 weeks, read-out: % control (percent of plants killed); for pest or weed control at 2241.7 g/ha: 2 lb./A.; for pest or weed control at 4483.4 g/ha: 4 lb./A.
# Procedure: as §3, §12, §13, §14, §15, §16, §17, §18, §19, §20, §21, §22, §23, §1
# Monocots [4] = assay: Herbicidal activity, postemergence, monocot weeds (Table II); settings: post-emergence, 336 h, about 2 weeks, read-out: % control (percent of plants killed); for pest or weed control at 2241.7 g/ha: 2 lb./A.; for pest or weed control at 4483.4 g/ha: 4 lb./A.
# Procedure: as §3, §4, §5, §6, §7, §8, §9, §10, §11, §1
# peanuts = assay: Crop tolerance, peanuts; settings: postemergence; 50% or less kill of crop at rates giving more than 50% kill of weeds
# Procedure: as §1, §2
Structure (SMILES),Tolerance to rice (rice),pest or weed control at 2241.7 g/ha (Monocots [1]),pest or weed control at 4483.4 g/ha (Monocots [1]),pest or weed control at 2241.7 g/ha (Dicots [2]),pest or weed control at 4483.4 g/ha (Dicots [2]),pest or weed control at 2241.7 g/ha (Dicots [3]),pest or weed control at 4483.4 g/ha (Dicots [3]),pest or weed control at 2241.7 g/ha (Monocots [4]),pest or weed control at 4483.4 g/ha (Monocots [4]),Tolerance to peanuts (peanuts)
"CN(C)c1cc(Oc2ccc(C(F)(F)F)cc2Cl)ccc1[N+](=O)[O-] [Example 20, 2-chloro-α,α,α-trifluoro-p-tolyl-3-dimethylamino-4-nitrophenyl ether]",Tolerance,80%,88%,97%,88%,93%,99%,80%,78%,–
"O=[N+]([O-])c1ccc(Oc2ccc(C(F)(F)F)cc2Cl)cc1N1CCOCC1 [Example 28, 2-chloro-α,α,α-trifluoro-p-tolyl-3-morpholino-4-nitrophenyl ether]",–,79%,74%,100%,99%,79%,95%,73%,73%,–
C#CCCOc1cc(Oc2ccc(C(F)(F)F)cc2Cl)ccc1[N+](=O)[O-] [Example 29],–,66%,74%,100%,100%,84%,73%,97%,79%,–
CC(=O)CCOc1cc(Oc2ccc(C(F)(F)F)cc2Cl)ccc1[N+](=O)[O-] [Example 31],–,68%,74%,100%,100%,69%,99%,68%,61%,–
CC(=O)C(C)Oc1cc(Oc2ccc(C(F)(F)F)cc2Cl)ccc1[N+](=O)[O-] (centres unmarked) [Example 32],–,81%,86%,100%,100%,81%,100%,100%,86%,–
CNC(=O)Oc1cc(Oc2ccc(C(F)(F)F)cc2Cl)ccc1[N+](=O)[O-] [Example 33],–,79%,53%,100%,98%,74%,99%,65%,32%,–
"O=C(CCl)Nc1cc(Oc2ccc(C(F)(F)F)cc2Cl)ccc1[N+](=O)[O-] [Example 35, 2-chloro-α,α,α-trifluoro-p-tolyl-3-chloroacetamido-4-nitrophenyl ether]",–,60%,40%,80%,98%,72%,40%,63%,45%,–
"O=[N+]([O-])c1ccc(Oc2ccc(C(F)(F)F)cc2Cl)cc1Cl [Example 37, 2-chloro-α,α,α-trifluoro-p-tolyl-3-chloro-4-nitrophenyl ether]",–,100%,99%,100%,100%,100%,100%,100%,92%,Tolerance
O=[N+]([O-])c1ccc(Oc2ccc(C(F)(F)F)cc2Cl)cc1OCC1CO1 (centres unmarked) [Example 38],–,62%,47%,58%,98%,68%,86%,51%,43%,–
